Assay [1] concerns mTOR signaling pathway. In words: Immunoblotting of mTOR pathway protein phosphorylation in ovaries. Format: cell-based, mice. The note with it: day 10 mouse ovaries, 3 h, 10 μM, FIG. 1A. As for the experimental part: Ovaries from day 10 mice were incubated for 3 h with 10 μM of MHY1485 before immunoblotting analyses. […] Activated mTORC1 complex phosphorylates Thr389 in ribosomal S6 kinase (S6K), thereby activating it to subsequently phosphorylate ribosomal protein S6 (rpS6) and promote ribosome biogenesis. We further monitored S6K1 and rpS6 phosphorylation in ovarian tissues.
Ovaries from mice at day 10 of age were treated with MHY1485 (Millipore, Bedford, Mass.) for 3 h and proteins were extracted using M-PER Mammalian Protein Extraction Reagent (Thermo, Rockford, Ill.) containing a protease inhibitor cocktail (Thermo). Protein concentrations in supernatants were determined by the bicinchoninic acid method (Pierce, Rockford, Ill., USA). Equal amounts of protein lysates were loaded on 4-12% NuPAGE Bis-Tris gels (Invitrogen, Carlsbad, Calif.) in MOPS buffer and transferred to […] pore nitrocellulose membranes (LI-COR, Lincoln, Nebr., USA). First antibodies were from Cell Signaling (Beverly, Mass.) and rabbit secondary antibodies from LI-COR. Images were generated using a LI-COR Odyssey infrared imager.
In general terms: Immunoblotting shows a protein as a band on a membrane.

Assay [2] has as its system Ovaries from day 10 mice. The assay can be described thus: Ovarian explant culture and follicle counting. The note with it: explant culture 4 days. Format: cell-based. As for the experimental part: We treated ovaries from day 10 mice with increasing doses of MHY1485 using an explant culture model.
Ovaries from day 10 mice were placed on culture plate inserts (Millipore) and cultured in 400 μl of DMEM/F12 containing 0.1% BSA, 0.1% Albumax II, insulin-transferrin-selenium, 0.05 mg/ml L-ascorbic acid and penicillin-streptomycin under a membrane insert to cover ovaries with a thin layer of medium. Ovaries were treated with 1-10 μM of MHY1485 and cultured for 4 days with medium change after 2 days of culture. At the end of culture, ovaries were fixed with formalin before weighing. Some ovaries were paraffin-embedded and cut into continuous sections. Sections were stained with hematoxylin and eosin for follicle counting, and only follicles with clearly stained oocyte nucleus were counted to avoid recounting of the same follicle.

Assay [3] deals with Ovaries from day 10 mice. The assay can be described thus: Ovarian tissue grafting (in vitro treatment then allo-transplantation under kidney capsules). Format: in vivo. The following applies: 2 days in vitro treatment. As for the experimental part: (§1) Using this model, we further treated the hosts with eCG for 2 days to promote the growth of preovulatory follicles, followed by an injection of hCG to promote oocyte maturation. At 12 h after hCG injection, mature oocytes were punctured from preovulatory follicles for in vitro fertilization.
At the end of transplantation, grafts were collected for weight determination and histological analysis. For some animals, ovaries from day 10 mice were treated with IVA drugs (PTEN inhibitor: (bpv(hopic) at 30 μM for the first day and an activator for phosphoinositol-3-kinase 740YP at 150 μg/mL for two days) before grafting.

Assay [4] has as its system oocytes. In words: In vitro fertilization and embryo transfer of oocytes from pretreated grafts. Format: in vivo, mice. The procedure: as §1
Ovaries from B6D2F1 mice at 10 days of age were treated with 10 μM MHY1485 for 2 days, followed by transplantation into kidney capsules of hosts for 5 days. At day 5 after transplantation, animals were treated with 10 IU equine chorionic gonadotropin (eCG) for 48 h, followed by an injection of 10 IU human chorionic gonadotropin (hCG). Twelve hour later, grafts were collected and oocytes were retrieved in the M2 medium (Cytospring, Mountain View, Calif.). As controls, B6D2F1 mice at day 25 of age were treated with 5 IU eCG for 48 h, followed by 5 IU hCG before oocyte retrieval. For in vitro fertilization, sperm from B6D2F1 male mice were collected into human tubal fluid medium (Cytospring) and pre-incubated for 1 h at 37 C. Oocytes were then fertilized with sperm (2-3×10^5/ml) for 6 h, and inseminated oocytes were transferred into KSOM medium (Cytospring) for development into blastocysts. For embryo transfer, two-cell embryos were transferred into oviducts of pseudopregnant, 8-week-old CD1 nice pre-mated with vasectomized males of the same strain.

Assay [5] concerns the target PTEN (Homo sapiens, UniProt P60484). The note with it: cited from earlier work.
Assay [6] concerns PTP. The note with it: cited from earlier work.
[7] abbreviates: grafts 5 days with FSH, FIG. 2C.

pIC50: −log10 of the molar value.

Chain of PTEN (P60484 whole entry): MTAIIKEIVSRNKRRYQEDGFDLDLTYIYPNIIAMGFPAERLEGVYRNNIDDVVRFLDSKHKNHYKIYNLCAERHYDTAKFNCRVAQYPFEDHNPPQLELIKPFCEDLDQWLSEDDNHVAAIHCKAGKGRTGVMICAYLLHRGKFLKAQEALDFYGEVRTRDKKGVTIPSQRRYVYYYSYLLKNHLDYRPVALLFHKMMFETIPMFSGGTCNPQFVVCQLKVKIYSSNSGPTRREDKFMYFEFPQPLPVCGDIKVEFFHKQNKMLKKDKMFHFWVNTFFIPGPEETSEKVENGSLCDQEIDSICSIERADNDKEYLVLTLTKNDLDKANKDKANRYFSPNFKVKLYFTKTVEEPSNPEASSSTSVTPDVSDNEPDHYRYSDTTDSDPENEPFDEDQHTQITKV

In the case of `O=[N+]([O-])c1ccc(Nc2nc(N3CCOCC3)nc(N3CCOCC3)n2)cc1` [MHY1485, 4,6-Di-4-morpholinyl-N-(4-nitrophenyl)-1,3,5-triazin-2-amine], in assay [1], the phospho-mTOR levels result is “increased”, the “phosphorylation of S6K1” value is given as “increased” and the “phosphorylation of rpS6” value was “increased”. Also, the ovarian weights result in assay [2] (1-10 μM, FIG. 1B) is “dose-dependent increases”. The “follicle growth (histology, follicle counting)” value in assay [2] (FIG. 1C, 1D) is “enhancement of follicle growth from early secondary to the late secondary stage”. The graft weights result in assay [3] (grafted into adult hosts, daily FSH 5 days, FIG. 2A) was “increased”. Moreover, the antral/preovulatory follicles result in assay [3] (grafts 5 days with FSH, FIG. 2B, 2C) was “increases in the development of antral/preovulatory follicles”. In assay [3] (setting [7]), the early secondary follicles entry is given as “decrease of early secondary follicles” and the primary follicles result is “increase of primary follicles”. The “development of oocytes after in vitro fertilization” value in assay [4] (10 μM 2 days, graft 5 days, eCG then hCG, oocytes fertilized, FIG. 3A) is recorded as “could develop into blastocysts”. For the same compound, the “outcome of 2-cell embryo transfer into pseudopregnant surrogate mothers” value in assay [4] (FIG. 3C) is “healthy pups were delivered”. Moreover, the “early embryonic development vs oocytes from day 25 mice (controls)” value in assay [4] (percentage of oocytes developing into each embryonic stage, FIG. 3B) was “comparable early embryonic development”.
For `O=C([O-])c1ccccn1.OO.OO.[K+].[K+].[OH-].[V]` [dipotassium bisperoxo(picolinato)oxovanadate (V)], the negative-log IC50 (pIC50) in assay [5] was 7.51.
Turning to `OO.OO.[K+].[OH-].[V].c1cnc2c(c1)ccc1cccnc12` [potassium bisperoxo (1,10-phenanthroline)oxovanadate (V)], the pIC50 in assay [5] is 7.42.
For the compound “dipotassium bisperoxo(5-hydroxypyridine-2-carboxyl)oxovanadate (V)”, the pIC50 in assay [5] is 7.85.
monoperoxo(picolinato)oxovanadate(V): the pIC50 in assay [6] was 4.74.
Turning to “potassium bisperoxo(bipyridine)oxovanadate (V)”, the pIC50 in assay [5] is 7.74.

The term pIC50 denotes the IC50 on a negative log10 scale, so that one unit is a factor of ten.

The values above are taken from US20170290890A1, “STIMULATION OF OVARIAN FOLLICLE DEVELOPMENT AND OOCYTE MATURATION” (The Board of Trustees of the Leland Stanford Junior …, priority 2014, published 2017).
